In patent US8278345B2, “Inhibitors of glutaminyl cyclase” (Probiodrug AG, priority 2006, dated 2012):
Where two headings read alike, the source gives them in different places.

Biological target: hQC (Homo sapiens, UniProt Q16769)
Assay: Inhibitor assay for glutaminyl cyclase activity (fluorometric, H-Gln-βNA / H-Gln-AMC)
Type: biochemical
How it was run: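 Coupled fluorometric assay at 30 °C with pyroglutamyl aminopeptidase, in Tris/HCl pH 8.0 with EDTA, substrate H-Gln-βNA (0.2 mM; ex/em 320/410 nm) or H-Gln-AMC (ex/em 380/460 nm), initiated by QC. Screening: 4 mM inhibitor, substrate at 1 KM; Ki from progress curves fitted to competitive inhibition.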

[1] = compound from preparative synthesis, purified, read-out: IC50 hQC
[2] = compound from preparative synthesis, purified

Chain of hQC (Q16769 29-361): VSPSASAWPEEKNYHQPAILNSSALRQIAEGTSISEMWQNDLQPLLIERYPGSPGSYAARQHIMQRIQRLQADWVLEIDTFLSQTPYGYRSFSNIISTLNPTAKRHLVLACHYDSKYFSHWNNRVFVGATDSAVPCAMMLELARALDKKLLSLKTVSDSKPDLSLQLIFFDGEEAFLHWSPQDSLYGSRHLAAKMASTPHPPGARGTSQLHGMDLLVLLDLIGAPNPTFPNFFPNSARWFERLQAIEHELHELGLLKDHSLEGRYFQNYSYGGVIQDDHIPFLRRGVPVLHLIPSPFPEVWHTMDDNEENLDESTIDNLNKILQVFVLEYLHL

SMILES | IC50 (read-out: IC50) | IC50 [1] | Ki [2]
CCCCCC1=C(O)C(=O)N(CCCn2ccnc2)C1CO (stereo not shown) [Compound 211, 3-Hydroxy-5-hydroxymethyl-1-(3-imidazol-1-yl-propyl)-4-pentyl-1,5-dihydro-pyrrol-2-one] | 400 nM | – | –
Cc1ccc(C2C(C(C)C)=C(O)C(=O)N2CCCn2ccnc2)o1 (stereo not shown) [Compound 57, 3-Hydroxy-1-(3-imidazol-1-yl-propyl)-4-isopropyl-5-(5-methyl-furan-2-yl)-1,5-dihydro-pyrrol-2-one] | 1300 nM | – | –
CC(C)C1=C(O)C(=O)N(CCCn2ccnc2)C1c1ccco1 (stereo not shown) [Compound 72, 5-Furan-2-yl-3-hydroxy-1-(3-imidazol-1-yl-propyl)-4-isopropyl-1,5-dihydro-pyrrol-2-one] | 2200 nM | – | –
CCCCCC1=C(O)C(=O)N(CCCn2ccnc2)C1C(F)(F)F (stereo not shown) [Compound 203, 3-Hydroxy-1-(3-imidazol-1-yl-propyl)-4-pentyl-5-trifluoromethyl-1,5-dihydro-pyrrol-2-one] | 40 nM | – | –
O=C1C(O)=C(c2ccc(O)cc2)C(c2c[nH]c3ccccc23)N1CCCn1ccnc1 (stereo not shown) [Compound 167, 3-Hydroxy-4-(4-hydroxy-phenyl)-1-(3-imidazol-1-yl-propyl)-5-(1H-indol-3-yl)-1,5-dihydro-pyrrol-2-one] | 40 nM | – | –
CCC(C)C1C(c2ccccc2)=C(O)C(=O)N1CCCn1ccnc1 (stereo not shown) [Compound 79, 5-sec-Butyl-3-hydroxy-1-(3-imidazol-1-yl-propyl)-4-phenyl-1,5-dihydro-pyrrol-2-one] | 400 nM | – | –
CCCCCC1C(c2c[nH]c3ccccc23)=C(O)C(=O)N1CCCn1ccnc1 (stereo not shown) [Compound 124, 3-Hydroxy-1-(3-imidazol-1-yl-propyl)-4-(1H-indol-3-yl)-5-pentyl-1,5-dihydro-pyrrol-2-one] | 400 nM | – | –
O=C1C(O)=C(c2ccccc2)C(C2CCC=CO2)N1CCCn1ccnc1 (stereo not shown) [Compound 93, 5-(3,4-Dihydro-2H-pyran-2-yl)-3-hydroxy-1-(3-imidazol-1-yl-propyl)-4-phenyl-1,5-dihydro-pyrrol-2-one] | 40 nM | 1670 nM | –
CCCCCC1=C(O)C(=O)N(CCCn2ccnc2)C1c1ccccn1 (stereo not shown) [Compound 208, 3-Hydroxy-1-(3-imidazol-1-yl-propyl)-4-pentyl-5-pyridin-2-yl-1,5-dihydro-pyrrol-2-one] | 400 nM | – | –
CCCCCC1=C(O)C(=O)N(CCCn2ccnc2)C1C(C)CC (stereo not shown) [Compound 186, 5-sec-Butyl-3-hydroxy-1-(3-imidazol-1-yl-propyl)-4-pentyl-1,5-dihydro-pyrrol-2-one] | 400 nM | – | –
CC1C(c2ccccc2)=C(O)C(=O)N1CCCn1ccnc1 (stereo not shown) [Compound 90, 3-Hydroxy-1-(3-imidazol-1-yl-propyl)-5-methyl-4-phenyl-1,5-dihydro-pyrrol-2-one] | 1300 nM | – | –
O=C1C(O)=C(c2c[nH]c3ccccc23)C(c2ncc[nH]2)N1CCCn1ccnc1 (stereo not shown) [Compound 133, 3-Hydroxy-5-(1H-imidazol-2-yl)-1-(3-imidazol-1-yl-propyl)-4-(1H-indol-3-yl)-1,5-dihydro-pyrrol-2-one] | 1300 nM | – | –
O=C1C(O)=C(c2ccc(O)cc2)C(Cc2ccccc2)N1CCCn1ccnc1 (stereo not shown) [Compound 169, 5-Benzyl-3-hydroxy-4-(4-hydroxy-phenyl)-1-(3-imidazol-1-yl-propyl)-1,5-dihydro-pyrrol-2-one] | 40 nM | – | –
CC(C)/C=C/C1C(c2cccc(O)c2)=C(O)C(=O)N1CCCn1ccnc1 (stereo not shown) [Compound 10, 3-Hydroxy-4-(3-hydroxy-phenyl)-1-(3-imidazol-1-yl-propyl)-5-(3-methyl-but-1-enyl)-1,5-dihydro-pyrrol-2-one] | 5800 nM | – | –
CCCCCC1=C(O)C(=O)N(CCCn2ccnc2)C1C1CC1 (stereo not shown) [Compound 212, 5-Cyclopropyl-3-hydroxy-1-(3-imidazol-1-yl-propyl)-4-pentyl-1,5-dihydro-pyrrol-2-one] | 400 nM | – | –
CCCCCC1=C(O)C(=O)N(CCCn2ccnc2)C1CCCCC (stereo not shown) [Compound 196, 3-Hydroxy-1-(3-imidazol-1-yl-propyl)-4,5-dipentyl-1,5-dihydro-pyrrol-2-one] | 40 nM | – | –
CC1=C(O)C(=O)N(CCCn2ccnc2)C1c1cccc(O)c1 (stereo not shown) [Compound 53, 3-Hydroxy-5-(3-hydroxy-phenyl)-1-(3-imidazol-1-yl-propyl)-4-methyl-1,5-dihydro-pyrrol-2-one] | 1300 nM | – | –

The next lines start with the values.

IC50 (read-out: IC50) | IC50 [1] | Ki [2] | SMILES
40 nM | – | – | O=C1C(O)=C(c2c[nH]c3ccccc23)C(c2ccc3nonc3c2)N1c1ccc2[nH]cnc2c1 (stereo not shown) [Compound 390, 1-(1H-Benzoimidazol-5-yl)-5-(benzo[c][1,2,5]oxadiazol-5-yl)-3-hydroxy-4-(1H-indol-3-yl)-1,5-dihydro-pyrrol-2-one]
40 nM | 1310 nM | – | CCCCCC1=C(O)C(=O)N(CCCn2ccnc2)C1c1ccco1 (stereo not shown) [Compound 213, 5-Furan-2-yl-3-hydroxy-1-(3-imidazol-1-yl-propyl)-4-pentyl-1,5-dihydro-pyrrol-2-one]
3190 nM | – | – | Cc1cc(C2C(C(C)C)=C(O)C(=O)N2c2ccc3[nH]cnc3c2)oc1C (stereo not shown) [Compound 388, 1-(1H-Benzoimidazol-5-yl)-5-(4,5-dimethyl-furan-2-yl)-3-hydroxy-4-isopropyl-1,5-dihydro-pyrrol-2-one]
39.8 nM | – | 3.31 nM | O=C(C1=C(O)C(=O)N(c2ccc3[nH]cnc3c2)C1c1cccc(F)c1F)c1ccccc1 (stereo not shown) [Compound 466, 1-(1H-benzo[d]imidazol-5-yl)-4-benzoyl-5-(2,3-difluorophenyl)-3-hydroxy-1H-pyrrol-2(5H)-one]
470 nM | – | 55.8 nM | CC1=C(O)C(=O)N(c2ccc3nc[nH]c3c2)C1c1c(F)ccc(F)c1Cl (stereo not shown) [Compound 472, 1-(1H-benzo[d]imidazol-6-yl)-5-(2-chloro-3,6-difluorophenyl)-3-hydroxy-4-methyl-1H-pyrrol-2(5H)-one]
1210 nM | – | – | CC1=C(O)C(=O)N(c2ccc3[nH]cnc3c2)C1c1ccc2nonc2c1 (stereo not shown) [Compound 351, 1-(1H-Benzoimidazol-5-yl)-5-(benzo[c][1,2,5]oxadiazol-5-yl)-3-hydroxy-4-methyl-1,5-dihydro-pyrrol-2-one]
2470 nM | – | – | O=C(C1=C(O)C(=O)N(c2ccc3[nH]cnc3c2)C1c1c[nH]cn1)C1CCCCC1 (stereo not shown) [Compound 255, 1-(1H-Benzoimidazol-5-yl)-4-cyclohexanecarbonyl-3-hydroxy-5-(1H-imidazol-4-yl)-1,5-dihydro-pyrrol-2-one]
400 nM | 13.3 nM | – | O=C(C1=C(O)C(=O)N(c2ccc3[nH]cnc3c2)C1c1ccc(Cl)c(Cl)c1)C1CCCCC1 (stereo not shown) [Compound 372, 1-(1H-Benzoimidazol-5-yl)-4-cyclohexanecarbonyl-5-(3,4-dichloro-phenyl)-3-hydroxy-1,5-dihydro-pyrrol-2-one]
1840 nM | – | – | CCCC(=O)C1=C(O)C(=O)N(c2ccc3[nH]cnc3c2)C1C1CCOC1 (stereo not shown) [Compound 425, 1-(1H-Benzoimidazol-5-yl)-4-butyryl-3-hydroxy-5-(tetrahydro-furan-3-yl)-1,5-dihydro-pyrrol-2-one]
4090 nM | – | – | CC(C)(C)C(=O)C1=C(O)C(=O)N(c2ccc3[nH]cnc3c2)C1c1cccc(F)c1F (stereo not shown) [Compound 383, 1-(1H-Benzoimidazol-5-yl)-5-(2,3-difluoro-phenyl)-4-(2,2-dimethyl-propionyl)-3-hydroxy-1,5-dihydro-pyrrol-2-one]
9130 nM | – | – | CC1=C(O)C(=O)N(c2ccc3[nH]cnc3c2)C1c1cc(C)ccc1C (stereo not shown) [Compound 417, 1-(1H-Benzoimidazol-5-yl)-5-(2,5-dimethyl-phenyl)-3-hydroxy-4-methyl-1,5-dihydro-pyrrol-2-one]
2650 nM | – | – | CCCC(=O)C1=C(O)C(=O)N(c2ccc3[nH]cnc3c2)C1c1cccc(C)n1 (stereo not shown) [Compound 334, 1-(1H-Benzoimidazol-5-yl)-4-butyryl-3-hydroxy-5-(6-methyl-pyridin-2-yl)-1,5-dihydro-pyrrol-2-one]
310 nM | – | – | CC(=O)C1=C(O)C(=O)N(c2ccc3[nH]cnc3c2)C1c1cc(F)cc(F)c1F (stereo not shown) [Compound 261, 4-Acetyl-1-(1H-benzoimidazol-5-yl)-3-hydroxy-5-(2,3,5-trifluoro-phenyl)-1,5-dihydro-pyrrol-2-one]
7690 nM | – | – | O=C(C1=C(O)C(=O)N(c2ccc3[nH]cnc3c2)C1c1cccc(F)c1)C1CC1 (stereo not shown) [Compound 370, 1-(1H-Benzoimidazol-5-yl)-4-cyclopropanecarbonyl-5-(3-fluoro-phenyl)-3-hydroxy-1,5-dihydro-pyrrol-2-one]
2200 nM | – | – | CCC1=C(O)C(=O)N(CCCn2ccnc2)C1c1ccc(C)o1 (stereo not shown) [Compound 227, 4-Ethyl-3-hydroxy-1-(3-imidazol-1-yl-propyl)-5-(5-methyl-furan-2-yl)-1,5-dihydro-pyrrol-2-one]
4 nM | 4.5 nM | – | CC(C)CC(=O)C1=C(O)C(=O)N(c2ccc3[nH]cnc3c2)C1c1ccc2cccc(O)c2n1 (stereo not shown) [Compound 327, 1-(1H-Benzoimidazol-5-yl)-3-hydroxy-5-(8-hydroxy-quinolin-2-yl)-4-(3-methyl-butyryl)-1,5-dihydro-pyrrol-2-one]
3280 nM | – | – | CC1=C(O)C(=O)N(c2ccc3[nH]cnc3c2)C1c1nccs1 (stereo not shown) [Compound 326, 1-(1H-Benzoimidazol-5-yl)-3-hydroxy-4-methyl-5-thiazol-2-yl-1,5-dihydro-pyrrol-2-one]
310 nM | – | – | CC1=C(O)C(=O)N(c2ccc3[nH]cnc3c2)C1c1coc2ccc(C)cc2c1=O (stereo not shown) [Compound 328, 1-(1H-Benzoimidazol-5-yl)-3-hydroxy-4-methyl-5-(6-methyl-4-oxo-4H-chromen-3-yl)-1,5-dihydro-pyrrol-2-one]
1300 nM | – | – | CCC1=C(O)C(=O)N(CCCn2ccnc2)C1c1ccccc1 (stereo not shown) [Compound 236, 4-Ethyl-3-hydroxy-1-(3-imidazol-1-yl-propyl)-5-phenyl-1,5-dihydro-pyrrol-2-one]
9220 nM | – | – | CC1=C(O)C(=O)N(c2ccc3[nH]cnc3c2)C1c1cc(C)c(C)o1 (stereo not shown) [Compound 394, 1-(1H-Benzoimidazol-5-yl)-5-(4,5-dimethyl-furan-2-yl)-3-hydroxy-4-methyl-1,5-dihydro-pyrrol-2-one]
